Measurements as given in PMC11477000, “Enantioselective Binding of Proton Pump Inhibitors to Alpha1-Acid Glycoprotein and Human Serum Albumin—A Chromatographic, Spectroscopic, and In Silico Study” (International Journal of Molecular Sciences, 2024).

Assays:
[1] = target: T1, human serum albumin (HSA) (Homo sapiens, UniProt P02768); test: Displacement chromatography on HSA column with warfarin and ibuprofen as competitors; format: binding; details: IPA:10 mM pH 7 phosphate buffer 1:99, 25 °C
Protocol: For identification of the binding site of HSA, a displacement chromatography and fluorescence displacement study were performed. In the case of chromatography, to the mobile phase, increasing concentrations of the competitors, warfarin and ibuprofen, that are known to bind to specific binding sites on HSA, Sudlow site I and Sudlow site II, respectively, were added. In the case of the fluorescence displacement study, the fluorescence quenching data of the PPI-HSA system in the presence of warfarin and ibuprofen were investigated.
(Chromatographic parameter: Column temperature: 25 °C,
mobile phase: IPA : 10 mM pH 7 sodium phosphate buffer 1:99, flow rate: 0.7 mL/min, detection

[2] = target: T1, human serum albumin (HSA); test: van 't Hoff thermodynamic analysis on HSA column; format: binding; details: single enantiomer, pH 7, 95:5 buffer:IPA, 10–30 °C
Protocol: The temperature effect was investigated at pH 7 and a 95:5 buffer:IPA eluents ratio, between 10 and 30 °C on both columns. […] The determination of thermodynamic parameters can provide valuable insights into the process of enantiodiscrimination, including its mechanistic aspects. The applied classical van ’t Hoff methodology postulates the existence of solely enantioselective interaction sites on the stationary phase. Nonetheless, it should be emphasized that a more realistic approach would encompass both enantioselective and non-enantioselective interactions. The isoenantioselective temperatures (Tiso) were calculated by dividing Δ(ΔH°) by Δ(ΔS°). At this temperature, enthalpy and entropy compensations negate each other, resulting in the coelution of the two enantiomers and no separation. The Q values (Q = Δ(ΔH°)/T × Δ(ΔS°)298K) were used for visualizing the relative contribution of enthalpic and entropic terms to the free energy of adsorption. If the Q values were smaller than 1, the enantioseparation was controlled by entropy to a higher extent.
Classical van ’t Hoff analysis was applied to determine the thermodynamic parameters. Van ’t Hoff plots were constructed by plotting the natural logarithm of the retention factor as a function of the inverse of the absolute temperature (thermodynamic temperature) over a temperature range of 10–30 °C:(5) […]
In the equation, R represents the universal gas constant, T represents the absolute temperature in Kelvin, and k represents the retention factor of the enantiomers. ΔH° stands for the standard enthalpy, while ΔS° represents the standard entropy change of transfer of the solute from the mobile phase to the stationary phase. Φ is the phase ratio of the column. If ΔH° remains constant within the selected temperature range, a linear relationship can be observed between lnk and 1/T. The slope of this relationship is −ΔH°/R, and the intercept is ΔS°/R + ln Φ. Since the value of the phase ratio is rarely known, ΔS°* values (ΔS°* = ΔS° + Rln Φ) are often used to account for the uncertainty in Φ. Similarly, the difference in the change of standard enthalpy, Δ(ΔH°), and standard entropy, Δ(ΔS°), for the two enantiomers was calculated as follows:(6) lnα=−ΔΔH°/RT+ΔΔS°/R

T1 sequence (P02768 25-609): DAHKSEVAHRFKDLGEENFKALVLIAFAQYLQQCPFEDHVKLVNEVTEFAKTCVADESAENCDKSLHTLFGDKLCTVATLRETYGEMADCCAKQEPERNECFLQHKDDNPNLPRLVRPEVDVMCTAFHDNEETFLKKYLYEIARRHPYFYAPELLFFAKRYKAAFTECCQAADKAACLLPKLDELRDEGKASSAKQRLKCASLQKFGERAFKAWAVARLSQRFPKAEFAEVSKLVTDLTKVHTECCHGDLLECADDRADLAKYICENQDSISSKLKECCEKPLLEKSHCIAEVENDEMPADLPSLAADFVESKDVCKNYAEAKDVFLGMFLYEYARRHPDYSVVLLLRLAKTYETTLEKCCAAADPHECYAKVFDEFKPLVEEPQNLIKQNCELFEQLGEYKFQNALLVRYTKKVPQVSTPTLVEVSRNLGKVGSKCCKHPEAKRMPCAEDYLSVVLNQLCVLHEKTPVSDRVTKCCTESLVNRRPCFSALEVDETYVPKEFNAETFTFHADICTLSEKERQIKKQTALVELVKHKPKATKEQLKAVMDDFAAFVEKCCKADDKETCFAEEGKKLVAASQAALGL

Cc1c(OCC(F)(F)F)ccnc1C[S@+]([O-])c1nc2ccccc2[nH]1 [S-lansoprazole]
k retention factor ([1]; ibuprofen 0 mM): 11.17
k retention factor ([1]; ibuprofen 0.01 mM): 9.81
k retention factor ([1]; ibuprofen 0.05 mM): 8.51
k retention factor ([1]; ibuprofen 0.1 mM): 7.60
k retention factor ([1]; warfarin 0 mM): 11.17
k retention factor ([1]; warfarin 0.01 mM): 9.03
k retention factor ([1]; warfarin 0.05 mM): 8.13
k retention factor ([1]; warfarin 0.1 mM): 7.44
Δ(ΔG°) [2]: -1.58 kcal/mol
Δ(ΔH°) [2]: -2.68 kcal/mol
Δ(ΔS°) [2]: −15.9 J/molK
